Experimental data reported in ChEMBL document CHEMBL1150850, “Cytotoxic principles from Ventilago leiocarpa” (J Nat Prod, 2001).

What was measured:
Raji = assay: Inhibition of human Raji cell proliferation assessed as [3H]thymidine incorporation after 3 days by scintillation counting; type: functional, cell-based
HeLa = assay: Inhibition of human HeLa cell proliferation assessed as [3H]thymidine incorporation after 3 days by scintillation counting; type: functional, cell-based
Calu-1 = assay: Inhibition of human Calu1 cell proliferation assessed as [3H]thymidine incorporation after 3 days by scintillation counting; type: functional, cell-based
Vero = assay: Inhibition of african green monkey Vero cell proliferation assessed as [3H]thymidine incorporation after 3 days by scintillation counting; type: cell-based; settings: Chlorocebus sabaeus
K562 = assay: Inhibition of human K562 cell proliferation assessed as [3H]thymidine incorporation after 3 days by scintillation counting; type: functional, cell-based
WISH = assay: Inhibition of human WISH cell proliferation assessed as [3H]thymidine incorporation after 3 days by scintillation counting; type: functional, cell-based

Measured: IC50

COc1cc(C)c(O)c2c1C(=O)c1c(O)cccc1C2=O
> 100 µM: all assays above

COc1c(O)cc2c(c1OC)C(=O)c1c(cc(C)c(O)c1O)C2=O
> 100 µM: all assays above

Cc1cc(O)c2c(c1O)C(=O)c1cc(O)cc(O)c1C2=O [CATENARIN]
> 100 µM: all assays above

Cc1cc(O)c2c(c1)C(=O)c1cccc(O)c1C2=O [CHRYSOPHANOL]
> 100 µM: all assays above

O=C1c2c(O)cc(O)cc2O[C@H](c2ccc(O)cc2)[C@H]1O [DIHYDROKAEMPFEROL]
> 100 µM: all assays above

Cc1cc(O)c2c(c1O)C(=O)c1cccc(O)c1C2=O [ISLANDICIN]
> 100 µM: all assays above

C=C(C)[C@@H]1CC[C@]2(C)CC[C@]3(C)[C@H](CC[C@@H]4[C@@]5(C)CC[C@H](O)C(C)(C)[C@@H]5CC[C@]43C)[C@@H]12 [LUPEOL]
> 100 µM: all assays above

COc1cc(O)c2c(c1)C(=O)c1c(O)c(C)cc(O)c1C2=O [PARIETIN]
> 100 µM: all assays above

CC[C@H](/C=C/[C@@H](C)[C@H]1CC[C@H]2[C@@H]3CC=C4C[C@@H](O)CC[C@]4(C)[C@H]3CC[C@]12C)C(C)C [STIGMASTEROL]
> 100 µM: all assays above

CC1(C)CC[C@]2(C)CC=C3[C@]4(C)CC[C@H]5C(C)(C)[C@@H](O)CC[C@]5(C)[C@H]4CC[C@@]3(C)[C@@H]2C1 [TARAXEROL]
> 100 µM: all assays above

COC1=C(O)C(=O)c2c(cc3c(c2O)C(C)OC(C)C3)C1=O (configuration not stated) [VENTILOQUINONE I]
> 100 µM: all assays above

COC1=C(O)C(=O)c2c(O)c3c(c(OC)c2C1=O)CC(C)OC3C (configuration not stated) [VENTILOQUINONE K]
> 100 µM: all assays above
